This note sets out measurements from publication PMC3913438, “Nucleotide Pyrophosphatase/Phosphodiesterase 1 Exerts a Negative Effect on Starch Accumulation and Growth in Rice Seedlings under High Temperature and CO2 Concentration Conditions” (Plant and Cell Physiology, 2013).

The assay concerns the target T1, NPP1 (Oryza sativa, UniProt Q0X0G2).
T1 construct: recombinant, purified from transgenic rice cells (UNP1) overexpressing NPP1 cDNA; 70 kDa SDS-PAGE, 251 kDa gel filtration; gene on chromosome 8
T1 sequence (Q0X0G2 26-623): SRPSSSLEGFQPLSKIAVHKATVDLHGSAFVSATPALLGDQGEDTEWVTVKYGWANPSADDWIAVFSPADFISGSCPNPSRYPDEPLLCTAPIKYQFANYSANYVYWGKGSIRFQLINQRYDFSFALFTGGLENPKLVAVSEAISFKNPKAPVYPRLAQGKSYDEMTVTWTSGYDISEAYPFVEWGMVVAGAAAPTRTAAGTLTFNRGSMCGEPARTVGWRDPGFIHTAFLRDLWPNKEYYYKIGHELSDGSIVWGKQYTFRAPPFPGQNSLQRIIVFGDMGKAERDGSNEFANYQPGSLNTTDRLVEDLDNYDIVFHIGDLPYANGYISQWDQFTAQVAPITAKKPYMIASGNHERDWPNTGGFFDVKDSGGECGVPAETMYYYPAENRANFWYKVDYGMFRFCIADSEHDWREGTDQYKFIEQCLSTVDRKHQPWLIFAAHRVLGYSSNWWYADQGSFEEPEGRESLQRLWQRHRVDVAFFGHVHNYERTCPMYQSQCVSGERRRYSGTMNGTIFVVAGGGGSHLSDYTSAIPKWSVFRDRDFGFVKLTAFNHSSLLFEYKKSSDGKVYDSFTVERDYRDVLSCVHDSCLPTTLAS
Description: hydrolysis kinetics, […] substrate. It counts as biochemical. Conditions: 37°C, optimal pH.

A word on the Km: it is the concentration of substrate that gives half-maximal velocity. Take `Nc1ncnc2c1ncn2[C@@H]1O[C@H](COP(=O)(O)OP(=O)(O)OP(=O)(O)O)[C@@H](O)[C@H]1O` [ATP]: the Km turned out to be 2.1 mM.
To `Nc1nc2c(ncn2[C@@H]2O[C@H](COP(=O)(O)OP(=O)(O)O[C@H]3O[C@H](CO)[C@@H](O)[C@H](O)[C@@H]3O)[C@@H](O)[C@H]2O)c(=O)[nH]1` [GDP-mannose] belongs 0.8 mM.
